Values after ≈ are worked out from the molar mass of the structure shown. Read-outs that look alike come from different tables or passages of the source.
Legend:
Type in all cases: cell-based
[1] = system: Fusarium virguliforme (Fv); assay: In vitro pathogen growth inhibition assay, Fv
Procedure, shortened: (§1)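 Spores in 17% V8 liquid medium, or 1.5 mm Rs mycelial plugs in ¼ PDB, incubated with compound; final concentration checked by OD600 for precipitation. OD readings at 24 and 48 h, blank-subtracted, plus visual ratings; value is concentration giving ≥90% growth inhibition.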

Septoria tritici (St) = assay: In vitro pathogen growth inhibition assay, St; settings: Zymoseptoria tritici, 48 h
Procedure, shortened: (§2)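 Value reported is the compound concentration reaching ≥90% growth inhibition, from OD readings at 24 and 48 h after blank subtraction, confirmed visually. Inoculum was spores diluted in 17% V8 medium, except Rs, using 1.5 mm mycelial plugs in ¼ PDB; actual compound concentration corrected via OD600.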

Rhizoctonia solani (Rs) = assay: In vitro pathogen growth inhibition assay, Rs (mycelial plugs); settings: Rhizoctonia solani, 48 h, mycelial plugs
Procedure, shortened: as §1

Botrtyis cinerea (Bc) = assay: In vitro pathogen growth inhibition assay, Bc; settings: 48 h
Procedure, shortened: as §2

Diplodia maydis (Dm) = assay: In vitro pathogen growth inhibition assay, Dm; settings: Stenocarpella maydis, 48 h
Procedure, shortened: as §1

[2] = system: Collectotrichum graminicola (Cg); assay: In vitro pathogen growth inhibition assay, Cg; settings: 48 h
Procedure, shortened: as §2

[3] = system: Phytophthora capsici (Pc); assay: In vitro pathogen growth inhibition assay, Pc; settings: 48 h
Procedure, shortened: as §1

[4] = system: Fusarium moniliforme (Fm); assay: In vitro pathogen growth inhibition assay, Fm; settings: Fusarium verticillioides
Procedure, shortened: as §2

[5] = system: Saccharomyces cerevisiae (Sc); assay: Yeast growth inhibition assay; settings: for IC75: Saccharomyces cerevisiae, ≥75% inhibition, read-out: Compound Concentration (ppm) sufficient for ≥75% inhibition, Sc
Protocol: Both tables list the concentration of each compound that was sufficient to ≥90% inhibition of growth for each of the fungal pathogens listed above. In addition, some of compounds were tested in a yeast growth inhibition assay for Saccharomyces cerevisiae (Sc). Table 2 lists the concentration of the tested compound that was sufficient to ≥75% inhibition of Saccharomyces cerevisiae (Sc).

[6] = ≥90% inhibition, 48 hours vs 2% DMSO control, read-out: Compound Concentration (ppm) sufficient for ≥90% inhibition of growth, Fv
[7] = ≥90% inhibition, 48 hours vs 2% DMSO control, read-out: Compound Concentration (ppm) sufficient for ≥90% inhibition of growth, St
[8] = ≥90% inhibition, 48 hours vs 2% DMSO control, read-out: Compound Concentration (ppm) sufficient for ≥90% inhibition of growth, Rs
[9] = ≥90% inhibition, 48 hours vs 2% DMSO control, read-out: Compound Concentration (ppm) sufficient for ≥90% inhibition of growth, Bc
[10] = ≥90% inhibition, 48 hours vs 2% DMSO control, read-out: Compound Concentration (ppm) sufficient for ≥90% inhibition of growth, Dm
[11] = ≥90% inhibition, 48 hours vs 2% DMSO control, read-out: Compound Concentration (ppm) sufficient for ≥90% inhibition of growth, Cg
[12] = ≥90% inhibition, 48 hours vs 2% DMSO control, read-out: Compound Concentration (ppm) sufficient for ≥90% inhibition of growth, Pc
[13] = ≥90% inhibition, 48 hours vs 2% DMSO control, read-out: Compound Concentration (ppm) sufficient for ≥90% inhibition of growth, Fm

| IC90 [1, 6] [µg/mL] | IC90 (Septoria tritici (St); [7]) [µg/mL] | IC90 (Rhizoctonia solani (Rs); [8]) [µg/mL] | IC90 (Botrtyis cinerea (Bc); [9]) [µg/mL] | IC90 (Diplodia maydis (Dm); [10]) [µg/mL] | IC90 [2, 11] [µg/mL] | IC90 [3, 12] [µg/mL] | IC90 [4, 13] [µg/mL] | IC90 ([1]; ≥90% growth inhibition, 48 hours, vs 2% DMSO control, read-out: Compound Concentration (ppm) sufficient for ≥90% inhibition of Fv) [µg/mL] | IC90 (Septoria tritici (St); ≥90% growth inhibition, 48 hours, vs 2% DMSO control, read-out: Compound Concentration (ppm) sufficient for ≥90% inhibition of St) [µg/mL] | IC90 (Rhizoctonia solani (Rs); ≥90% growth inhibition, 48 hours, vs 2% DMSO control, read-out: Compound Concentration (ppm) sufficient for ≥90% inhibition of Rs) [µg/mL] | IC90 (Botrtyis cinerea (Bc); ≥90% growth inhibition, 48 hours, vs 2% DMSO control, read-out: Compound Concentration (ppm) sufficient for ≥90% inhibition of Bc) [µg/mL] | IC90 (Diplodia maydis (Dm); ≥90% growth inhibition, 48 hours, vs 2% DMSO control, read-out: Compound Concentration (ppm) sufficient for ≥90% inhibition of Dm) [µg/mL] | IC90 ([2]; ≥90% growth inhibition, 48 hours, vs 2% DMSO control, read-out: Compound Concentration (ppm) sufficient for ≥90% inhibition of Cg) [µg/mL] | IC90 ([3]; ≥90% growth inhibition, 48 hours, vs 2% DMSO control, read-out: Compound Concentration (ppm) sufficient for ≥90% inhibition of Pc) [µg/mL] | IC90 ([4]; ≥90% growth inhibition, 48 hours, vs 2% DMSO control, read-out: Compound Concentration (ppm) sufficient for ≥90% inhibition of Fm) [µg/mL] | SMILES | IC75 [5] [µg/mL] | Compound Concentration (ppm) sufficient for ≥75% inhibition of Sc [5] [ppm] |
| --- | --- | --- | --- | --- | --- | --- | --- | --- | --- | --- | --- | --- | --- | --- | --- | --- | --- | --- |
| 2 (≈ 3.49 µM) | > 50 | 50 (≈ 87.2 µM) | 10 (≈ 17.4 µM) | > 50 | 50 (≈ 87.2 µM) | > 50 | 2 (≈ 3.49 µM) |  |  |  |  |  |  |  |  | COc1ccc(F)cc1[C@H](Cn1c(=O)n(C(C)(C)C(N)=O)c(=O)c2c(C)c(C3CCC3)sc21)OC1CCOCC1 [Compound I-147] | 33 (≈ 57.5 µM) |  |
| 2 (≈ 3.21 µM) | > 10 | 0.4 (≈ 0.642 µM) | 2 (≈ 3.21 µM) | 2 (≈ 3.21 µM) | 2 (≈ 3.21 µM) | > 50 | 0.08 (≈ 0.128 µM) |  |  |  |  |  |  |  |  | COc1ccccc1[C@H](Cn1c(=O)n(C(C)(C)C(=O)N2CCCC2)c(=O)c2c(C)c(-c3ncco3)sc21)OC1CCOCC1 [Compound I-005] | 0.4 (≈ 0.642 µM) |  |
| 10 (≈ 17.2 µM) | ≥ 50 | 50 (≈ 85.8 µM) | 2 (≈ 3.43 µM) | 2 (≈ 3.43 µM) | 50 (≈ 85.8 µM) | > 50 | 0.4 (≈ 0.686 µM) |  |  |  |  |  |  |  |  | COc1ccccc1[C@H](Cn1c(=O)n(C(C)(C)C(N)=O)c(=O)c2c(C)c(-c3ncco3)sc21)O[C@H]1CC[C@@H](O)CC1 [Compound I-100] | 1.2 (≈ 2.06 µM) |  |
|  |  |  |  |  |  |  |  | ≥ 0.4 | ≥ 10 | 2 (≈ 3.12 µM) | 0.4 (≈ 0.623 µM) | 2 (≈ 3.12 µM) | 0.4 (≈ 0.623 µM) | > 50 | ≥ 0.4 | CCOC(=O)c1sc2c(c1C)c(=O)n(C(C)(C)C(=O)N1CCCCC1)c(=O)n2C[C@H](OC1CCOCC1)c1ccccc1OC [Compound I-168] |  | 1.2 |
| 10 (≈ 16.3 µM) | > 50 | 10 (≈ 16.3 µM) | 2 (≈ 3.25 µM) | 10 (≈ 16.3 µM) | > 50 | > 10 | 0.4 (≈ 0.651 µM) |  |  |  |  |  |  |  |  | COc1ccc(F)cc1[C@H](Cn1c(=O)n(C(C)(C)C(N)=O)c(=O)c2c(C)c(-c3ncco3)sc21)OCC1CCC(O)CC1 (stereo partly drawn) [Compound I-104] | 11 (≈ 17.9 µM) |  |
| 2 (≈ 3.25 µM) | > 10 | 10 (≈ 16.2 µM) | 0.4 (≈ 0.65 µM) | 2 (≈ 3.25 µM) | 2 (≈ 3.25 µM) | > 50 | 0.08 (≈ 0.13 µM) |  |  |  |  |  |  |  |  | CCOC(=O)c1sc2c(c1C)c(=O)n(C(C)(C)C(=O)NC(C)C)c(=O)n2C[C@H](OC1CCOCC1)c1ccccc1OC [Compound I-008] | 3.7 (≈ 6.01 µM) |  |

Second part, the compound before the results:

| SMILES | IC90 [1, 6] [µg/mL] | IC90 (Septoria tritici (St); [7]) [µg/mL] | IC90 (Rhizoctonia solani (Rs); [8]) [µg/mL] | IC90 (Botrtyis cinerea (Bc); [9]) [µg/mL] | IC90 (Diplodia maydis (Dm); [10]) [µg/mL] | IC90 [2, 11] [µg/mL] | IC90 [3, 12] [µg/mL] | IC90 [4, 13] [µg/mL] | IC90 ([1]; ≥90% growth inhibition, 48 hours, vs 2% DMSO control, read-out: Compound Concentration (ppm) sufficient for ≥90% inhibition of Fv) [µg/mL] | IC90 (Septoria tritici (St); ≥90% growth inhibition, 48 hours, vs 2% DMSO control, read-out: Compound Concentration (ppm) sufficient for ≥90% inhibition of St) [µg/mL] | IC90 (Rhizoctonia solani (Rs); ≥90% growth inhibition, 48 hours, vs 2% DMSO control, read-out: Compound Concentration (ppm) sufficient for ≥90% inhibition of Rs) [µg/mL] | IC90 (Botrtyis cinerea (Bc); ≥90% growth inhibition, 48 hours, vs 2% DMSO control, read-out: Compound Concentration (ppm) sufficient for ≥90% inhibition of Bc) [µg/mL] | IC90 (Diplodia maydis (Dm); ≥90% growth inhibition, 48 hours, vs 2% DMSO control, read-out: Compound Concentration (ppm) sufficient for ≥90% inhibition of Dm) [µg/mL] | IC90 ([2]; ≥90% growth inhibition, 48 hours, vs 2% DMSO control, read-out: Compound Concentration (ppm) sufficient for ≥90% inhibition of Cg) [µg/mL] | IC90 ([3]; ≥90% growth inhibition, 48 hours, vs 2% DMSO control, read-out: Compound Concentration (ppm) sufficient for ≥90% inhibition of Pc) [µg/mL] | IC90 ([4]; ≥90% growth inhibition, 48 hours, vs 2% DMSO control, read-out: Compound Concentration (ppm) sufficient for ≥90% inhibition of Fm) [µg/mL] | IC75 [5] [µg/mL] | Compound Concentration (ppm) sufficient for ≥75% inhibition of Sc [5] [ppm] |
| --- | --- | --- | --- | --- | --- | --- | --- | --- | --- | --- | --- | --- | --- | --- | --- | --- | --- | --- |
| COc1ccccc1[C@H](Cn1c(=O)n(C(C)(C)C(N)=O)c(=O)c2c(C)c(-c3ncco3)sc21)OC1CCC(=O)CC1 [Compound I-154] | 50 (≈ 86.1 µM) | > 50 | > 50 | 2 (≈ 3.44 µM) | 10 (≈ 17.2 µM) | 50 (≈ 86.1 µM) | > 50 | 2 (≈ 3.44 µM) |  |  |  |  |  |  |  |  | 3.7 (≈ 6.37 µM) |  |
| CCNC(=O)C(C)(C)n1c(=O)c2c(C)c(-c3ncco3)sc2n(C[C@H](OC2CCC(=O)CC2)c2ccccc2OC)c1=O [Compound I-105] | 10 (≈ 16.4 µM) | > 50 | > 50 | 2 (≈ 3.29 µM) | 10 (≈ 16.4 µM) | 50 (≈ 82.1 µM) | > 50 | 0.4 (≈ 0.657 µM) |  |  |  |  |  |  |  |  | 1.2 (≈ 1.97 µM) |  |
| CCOC(=O)c1sc2c(c1C)c(=O)n(C(C)(C)C(=O)N1CCCC1)c(=O)n2C[C@H](OC(C)C)c1ccccc1OC [Compound I-007] | 0.4 (≈ 0.683 µM) | ≥ 2 | 0.08 (≈ 0.137 µM) | 0.4 (≈ 0.683 µM) | 0.4 (≈ 0.683 µM) | 0.4 (≈ 0.683 µM) | > 50 | 0.08 (≈ 0.137 µM) |  |  |  |  |  |  |  |  | 0.4 (≈ 0.683 µM) |  |
| COc1ccccc1[C@H](Cn1c(=O)n(C(C)(C)C(=O)N2CCOCC2)c(=O)c2c(C)c(-c3ncco3)sc21)OC(C)C [Compound I-143] | ≥ 10 | > 50 | > 50 | 2 (≈ 3.35 µM) | 10 (≈ 16.8 µM) | 50 (≈ 83.8 µM) | > 50 | 2 (≈ 3.35 µM) |  |  |  |  |  |  |  |  | 11 (≈ 18.4 µM) |  |

— patent US10941157B2, “Pesticidal compositions and uses thereof” (Gilead Apollo, LLC, priority 2015, dated 2021)
